Experimental data published in paper PMC3431598, “Phylogenetic and Transcriptomic Analysis of Chemosensory Receptors in a Pair of Divergent Ant Species Reveals Sex-Specific Signatures of Odor Coding” (PLoS Genetics, 2012).

Target: T1, HsOrco (with AgOR10) (Harpegnathos saltator, UniProt E2BJ30)
T1 construct: gene Orco; full-length CDS from worker antennal cDNA; cRNA in Xenopus oocytes with mosquito AgOR10; with Odorant receptor 10 (Anopheles gambiae)
T1 sequence (E2BJ30 1-479): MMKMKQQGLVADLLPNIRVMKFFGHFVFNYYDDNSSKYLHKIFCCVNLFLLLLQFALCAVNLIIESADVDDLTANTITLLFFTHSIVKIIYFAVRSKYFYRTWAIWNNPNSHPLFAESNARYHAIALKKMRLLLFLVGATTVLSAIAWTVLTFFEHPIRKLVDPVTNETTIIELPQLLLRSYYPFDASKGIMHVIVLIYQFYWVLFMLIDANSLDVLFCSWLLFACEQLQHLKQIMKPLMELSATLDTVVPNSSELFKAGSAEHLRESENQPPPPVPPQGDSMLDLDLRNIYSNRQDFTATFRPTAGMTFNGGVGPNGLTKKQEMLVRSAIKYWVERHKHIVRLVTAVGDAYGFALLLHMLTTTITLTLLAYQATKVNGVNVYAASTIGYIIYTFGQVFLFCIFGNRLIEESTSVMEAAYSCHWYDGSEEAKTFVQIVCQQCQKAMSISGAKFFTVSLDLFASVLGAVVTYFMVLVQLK
T1 sequence (B5U0U7 1-375 partner): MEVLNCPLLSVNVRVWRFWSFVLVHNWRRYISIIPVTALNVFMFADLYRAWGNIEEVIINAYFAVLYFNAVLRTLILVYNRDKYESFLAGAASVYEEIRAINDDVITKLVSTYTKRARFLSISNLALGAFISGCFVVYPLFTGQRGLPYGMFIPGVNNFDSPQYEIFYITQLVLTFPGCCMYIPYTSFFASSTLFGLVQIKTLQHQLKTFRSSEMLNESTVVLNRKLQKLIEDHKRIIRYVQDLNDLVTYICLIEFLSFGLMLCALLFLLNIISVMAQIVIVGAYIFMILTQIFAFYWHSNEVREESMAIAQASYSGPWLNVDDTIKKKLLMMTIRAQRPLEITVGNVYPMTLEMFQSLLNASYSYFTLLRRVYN
Experiment: two-electrode voltage clamp, Xenopus oocytes
Format: cell-based
Conditions: Orco agonist; AgOR10 co-expressed; -80 mV

CCc1ccc(NC(=O)CSc2nnc(-c3cccnc3)n2CC)cc1 [VUAA1]
two-electrode voltage clamp, Xenopus oocytes: produced responses to VUAA1 (an agonist for Orco)
